Laboratory results taken from article PMC9979976 (Acta Crystallographica. Section F, Structural Biology …, 2023).

Columns and labels:
[1] = target: T1, CATIII (chloramphenicol acetyltransferase III; CATIII+GG) (Escherichia coli, UniProt P00484); test: X-ray crystal structure, […] A; format: binding
T1 construct: gene cat3; synthetic gene, full length without Met1; expressed in E. coli BL21(DE3); trimer

[2] = target: the molecule itself; test: crystal structure; CATIII+GG at 24 mg/ml co-crystallised with 10 mM partially hydrolysed AcOCoA and saturating chloramphenicol; hanging drop, 46% PEG 400, 100 mM MgCl2, 0.1 M sodium citrate pH 5.5; space group P4(2)2(1)2, 1.68 A

CC(=O)OCCNC(=O)CCNC(=O)[C@H](O)C(C)(C)COP(=O)(O)OP(=O)(O)OC[C@H]1O[C@@H](n2cnc3c(N)ncnc32)[C@H](O)[C@@H]1OP(=O)(O)O [AcOCoA, acetyl-oxa(dethia)CoA] was tested, and the “X-ray crystal structure, 1.68 A” value ([1]; co-crystallized with 10 mM AcOCoA (partly hydrolysed) and saturated chloramphenicol, pH 5.5, 298 K, active site, clearest in chain A, unreactive substrate analog) was “In monomer A we can clearly model the position of the acetyl group”.

In the case of CC(C)(COP(=O)(O)OP(=O)(O)OC[C@H]1O[C@@H](n2cnc3c(N)ncnc32)[C@H](O)[C@@H]1OP(=O)(O)O)[C@@H](O)C(=O)NCCC(=O)NCCO [OCoA, oxa(dethia)CoA], the “X-ray crystal structure, 1.68 A” value ([1]; minor species (about 20% in monomer A) mixed with AcOCoA, with chloramphenicol, pH 5.5, active site) is reported as “Our structures here reveal a mixture of bound AcOCoA and OCoA”.

With O=C(N[C@H](CO)[C@H](O)c1ccc([N+](=O)[O-])cc1)C(Cl)Cl [chloramphenicol] the “X-ray crystal structure, 1.68 A” value ([1]; co-crystallized at saturation with AcOCoA/OCoA, pH 5.5, 298 K, active site of each monomer) was “Our CATIII structure has clear electron density for chloramphenicol in each monomer”.

B1: Chloramphenicol acetyltransferase III (enzyme)
chain: SGGNYTKFDVKNWVRREHFEFYRHRLPCGFSLTSKIDITTLKKSLDDSAYKFYPVMIYLIAQAVNQFDELRMAIKDDELIVWDSVDPQFTVFHQETETFSALSCPYSSDIDQFMVNYLSVMERYKSDTKLFPQGVTPENHLNISALPWVNFDSFNLNVANFTDYFAPIITMAKYQQEGDRLLLPLSVQVHHAVCDGFHVARFINRLQELCNSKLK
notes: cloning artifact left after TEV cleavage (Ser-Gly-Gly before Asn2); two Zn2+ modelled at contacts between trimers; also called CATIII; CATIII+GG; source: E. coli BL21(DE3), purified (HisTrap HP, TEV cleavage, second HisTrap HP); not shown: His6, N-terminal, cleaved
With B1 the “stoichiometry N” value [2] was 3.
